# Results as given in patent US9034866B2 (Genentech, Inc., priority 2012, dated 2015).
# What was measured:
# [1] = system: p52 (NF-kB2) nuclear translocation in HeLa cells; experiment: p52 nuclear translocation assay (non-classical NF-kB signaling), high content imaging; format: cell-based; details: Homo sapiens, HeLa, 5 h, 100 ng/mL anti-lymphotoxin beta receptor antibody for 5 hours, read-out: p52 HeLa Transloc Assay (IC50)
# How it was run: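 HeLa cells in 10% FBS medium were treated with compound (0.2% DMSO final), then stimulated 5 h with 100 ng/mL anti-lymphotoxin beta receptor antibody. After fixation, cells were immunostained for p52 (2 ug/mL antibody) with DRAQ5 nuclear stain and imaged by high-content imaging. IC50 in µM was derived from the nuclear/cytoplasmic signal ratio.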
# [2] = system: REL-A (p65) nuclear translocation in HeLa cells; experiment: REL-A nuclear translocation assay (classical NF-kB signaling), high content imaging; format: cell-based; details: Homo sapiens, HeLa, compounds 4.5 hours, then 10 ng/mL TNF-α for 30 minutes, read-out: REL-A HeLa Transloc Assay (IC50)
# How it was run: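 HeLa cells in 10% FBS medium preincubated with compounds (0.2% DMSO final) for 4.5 hours, then stimulated with 10 ng/mL TNF-α for 30 minutes. Fixed cells stained with 400 ng/mL anti-REL-A antibody, Alexa488 secondary and DRAQ5; translocation quantified by imaging as nuclear to cytoplasmic signal ratio.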
# [3] = target: nuclear factor-kappa B (NF-kB)-inducing kinase (NIK) (Homo sapiens (Human), UniProt Q99558); experiment: NIK Enzyme Inhibition Assay (Transcreener ADP fluorescence polarization); format: biochemical; details: purified NIK 0.2-1 nM, 10 uM ATP, Morrison's quadratic equation; read-out: NIK ADP-FP (Ki uM)
# How it was run: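 Fluorescence-polarization ADP detection (tracer displacement, 633 nm excitation) read after EDTA/Brij quench. Reaction: 0.2-1 nM insect-cell-derived NIK, 10 uM ATP, HEPES pH 7.2 with MgCl2 and DTT, 1% DMSO, 1-3.5 h with compounds.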
# Sequence of nuclear factor-kappa B (NF-kB)-inducing kinase (NIK) (Q99558 whole entry): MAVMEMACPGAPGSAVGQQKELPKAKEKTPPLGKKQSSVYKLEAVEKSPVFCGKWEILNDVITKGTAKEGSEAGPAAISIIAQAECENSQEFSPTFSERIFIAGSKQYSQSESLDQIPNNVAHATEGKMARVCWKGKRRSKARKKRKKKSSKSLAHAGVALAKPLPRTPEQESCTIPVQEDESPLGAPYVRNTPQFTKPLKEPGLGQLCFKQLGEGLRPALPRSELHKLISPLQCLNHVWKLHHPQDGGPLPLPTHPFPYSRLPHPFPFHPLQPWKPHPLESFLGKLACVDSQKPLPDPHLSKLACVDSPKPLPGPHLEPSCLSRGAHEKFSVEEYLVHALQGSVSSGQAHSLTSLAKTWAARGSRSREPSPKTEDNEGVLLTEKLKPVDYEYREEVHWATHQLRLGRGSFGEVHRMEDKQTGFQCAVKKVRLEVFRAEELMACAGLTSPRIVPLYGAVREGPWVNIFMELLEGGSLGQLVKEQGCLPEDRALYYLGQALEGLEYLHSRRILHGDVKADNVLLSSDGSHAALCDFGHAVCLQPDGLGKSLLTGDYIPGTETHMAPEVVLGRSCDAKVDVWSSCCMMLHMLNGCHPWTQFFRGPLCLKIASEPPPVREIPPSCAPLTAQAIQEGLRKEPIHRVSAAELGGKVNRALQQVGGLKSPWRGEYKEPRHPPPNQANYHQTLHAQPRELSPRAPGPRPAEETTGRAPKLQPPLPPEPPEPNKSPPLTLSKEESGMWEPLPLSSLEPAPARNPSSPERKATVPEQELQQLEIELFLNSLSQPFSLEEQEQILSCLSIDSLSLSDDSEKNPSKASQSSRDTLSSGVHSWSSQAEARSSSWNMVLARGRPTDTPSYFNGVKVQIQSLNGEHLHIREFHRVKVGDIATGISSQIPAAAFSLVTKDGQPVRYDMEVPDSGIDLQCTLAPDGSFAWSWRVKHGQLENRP
smiles,measurement,setting,value
CC(C)NC(=O)c1c(C(N)=O)nc2n1CCOc1ccc(C#C[C@]3(O)CCN(C)C3=O)cc1-2,IC50,[1],316 nM
same,IC50,[2],> 20000 nM
same,Ki,[3],0.0012 µM
C[C@@](O)(C#Cc1cc2c(cc1F)OCCn1c-2nc(C(N)=O)c1-c1nc(C2CC2)n[nH]1)c1ncccn1,IC50,[1],1600 nM
same,IC50,[2],> 20000 nM
same,Ki,[3],0.0047 µM
